What was measured:
[1] = target: T1, Polyunsaturated fatty acid 5-lipoxygenase (Homo sapiens, UniProt P09917); experiment: In vitro inhibition of 5-lipoxygenase from human polymorphs
T1 sequence (P09917 whole entry): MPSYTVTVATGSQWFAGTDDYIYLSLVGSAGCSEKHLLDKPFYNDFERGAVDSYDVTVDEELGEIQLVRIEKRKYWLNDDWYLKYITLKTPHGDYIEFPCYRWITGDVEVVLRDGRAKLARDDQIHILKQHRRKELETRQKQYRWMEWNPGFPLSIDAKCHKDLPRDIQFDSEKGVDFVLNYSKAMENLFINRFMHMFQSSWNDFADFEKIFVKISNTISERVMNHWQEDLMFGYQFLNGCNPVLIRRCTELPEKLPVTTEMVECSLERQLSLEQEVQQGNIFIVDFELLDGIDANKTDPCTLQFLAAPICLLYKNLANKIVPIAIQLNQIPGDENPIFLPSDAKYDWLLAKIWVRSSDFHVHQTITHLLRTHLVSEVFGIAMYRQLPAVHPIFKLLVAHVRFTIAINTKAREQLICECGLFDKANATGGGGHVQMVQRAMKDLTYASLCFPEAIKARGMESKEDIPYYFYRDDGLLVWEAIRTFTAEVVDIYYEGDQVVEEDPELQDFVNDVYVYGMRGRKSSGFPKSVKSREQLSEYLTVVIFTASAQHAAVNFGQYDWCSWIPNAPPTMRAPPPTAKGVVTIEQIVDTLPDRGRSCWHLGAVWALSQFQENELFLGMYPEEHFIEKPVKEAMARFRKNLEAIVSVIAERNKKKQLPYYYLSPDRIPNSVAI

[2] = target: Cyclooxygenase (Homo sapiens, UniProt P35354+P23219); experiment: In vitro inhibition of Prostaglandin G/H synthase from human polymorphs; assay type: protein assay

IC50 [1] | IC50 [2] | Structure (SMILES)
50 nM | 5000 nM | CN(O)C(=O)/C=C/c1cccc(Oc2ccccc2)c1
 | 3200 nM | CC(=O)N(O)C/C=C/c1cccc(Oc2ccccc2)c1
770 nM | 22000 nM | CC(=O)N(O)Cc1ccc(OCc2ccccc2)cc1

Source: ChEMBL document CHEMBL1124047, “Acetohydroxamic acids as potent, selective, orally active 5-lipoxygenase inhibitors” (J Med Chem, 1988)
